Data taken from US8975280B2, “Deoxynojirimycin and D-arabinitol analogs and methods of using” (The Chancellor, Masters and Scholars of The University of …, priority 2006, dated 2015).
Like-named read-outs stand apart in the source and are kept apart here.

Experiments:
α-glucosidase II = molecular target: T1, α-glucosidase II (Rattus norvegicus, UniProt A0A8I6GFL3); experiment: In vitro inhibition of purified α-glucosidase II, (a) and (b) activities, 2-AA-labeled FOS substrates, HPLC; type: biochemical
T1 construct: Purified α-glucosidase I and II were purified from rat liver by known methods; from tissue; host or cells: rat liver
Description: All chromatography was performed at 30° C. The first solvent, solvent A, was acetonitrile and the second solvent, solvent B, was Milli-Q water. […] Samples (<50 μl) were injected in Milli-Q water/acetonitrile (3/7, v/v). All chromatography was controlled, including data collection and processing, using Waters Empower software. Glucose units were determined, following comparison with a 2-AA-labeled glucose oligomer ladder (derived from a partial hydrolysate of dextran) external standard using Peak Time software (developed in-house).
Purified α-glucosidase I and II were purified from rat liver by known methods. […] 2-AA-labeled FOS were isolated and purified as substrates for either α-glucosidase I or II. […] […] […] […] The reactions were stopped by the addition of 30 μl acetonitrile.

glucosidase I = molecular target: T2, glucosidase I (Homo sapiens, UniProt Q13724); experiment: Inhibition of glucosidase I in HL60 cells, free oligosaccharide (G3M5N) analysis by NP-HPLC; type: cell-based; design: concentration of maximal glucosidase I inhibition in cells: unit not given here; settings: 24 h
T2 construct: endogenous in cells; host or cells: HL60 cells
T2 sequence (Q13724 1-837): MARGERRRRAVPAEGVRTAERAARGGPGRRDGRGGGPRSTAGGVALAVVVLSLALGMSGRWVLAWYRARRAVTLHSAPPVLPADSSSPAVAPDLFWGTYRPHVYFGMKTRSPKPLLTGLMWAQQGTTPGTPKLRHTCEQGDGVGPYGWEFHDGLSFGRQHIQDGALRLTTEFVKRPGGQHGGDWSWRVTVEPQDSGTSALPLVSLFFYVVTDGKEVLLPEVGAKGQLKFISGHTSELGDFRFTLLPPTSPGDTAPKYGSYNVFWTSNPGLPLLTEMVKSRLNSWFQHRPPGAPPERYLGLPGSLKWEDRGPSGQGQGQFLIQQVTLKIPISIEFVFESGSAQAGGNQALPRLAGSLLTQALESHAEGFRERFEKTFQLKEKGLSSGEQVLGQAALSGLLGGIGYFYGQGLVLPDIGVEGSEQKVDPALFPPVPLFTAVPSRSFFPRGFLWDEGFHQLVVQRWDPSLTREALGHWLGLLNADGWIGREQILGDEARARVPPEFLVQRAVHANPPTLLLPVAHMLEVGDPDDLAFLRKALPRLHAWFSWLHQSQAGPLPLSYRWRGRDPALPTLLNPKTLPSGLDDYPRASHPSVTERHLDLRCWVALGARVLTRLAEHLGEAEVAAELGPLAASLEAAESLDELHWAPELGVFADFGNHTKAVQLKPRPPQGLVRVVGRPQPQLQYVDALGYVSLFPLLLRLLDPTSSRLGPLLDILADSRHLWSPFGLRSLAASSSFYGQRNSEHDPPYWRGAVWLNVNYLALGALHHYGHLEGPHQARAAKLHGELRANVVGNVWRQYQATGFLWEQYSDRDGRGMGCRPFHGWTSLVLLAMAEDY
Description: The effect of an ER-glucosidase inhibitor on cells was evaluated using an assay method by modifying known methods. (H. R. Mellor et al., Cellular Effects of Deoxynojirimycin Analogues: Inhibition of N-Linked Oligosaccharide Processing and Generation of Free Glucosylated Oligosaccharides, 381 Biochem. J. 867-875 (2004). The detection of free oligosaccharides following imino sugar treatment to generate misfolded protein that is degraded in the cytosol is an accurate measure of cell ER entry and inhibition of glycoprotein processing of α-glucosidases I and II by imino sugars.
Cells were cultured to high density (×10^7 cells/ml) prior to growth in fresh medium containing NB-DNJ at varying concentrations. The cells were seeded at a lower density so as to achieve a high density at the end of the incubation period. […] The conditions for extraction of FOS were determined to maximize recovery of FOS. […]
ConA-Sepharose purified 2-AA-labeled oligosaccharides were separated by NP-HPLC using a 4.6×250 mm TSKgel Amide-80 column (Anachem, Luton, UK) with slight modifications to known methods. (D. C. Neville, et al.) The chromatography system consisted of a Waters Alliance 2695 separations module and an in-line Waters 474 fluorescence detector set at an excitation wavelength of 360 nm and emission wavelength of 425 nm. […]

T1 sequence (A0A8I6ADW9 1-525 partner): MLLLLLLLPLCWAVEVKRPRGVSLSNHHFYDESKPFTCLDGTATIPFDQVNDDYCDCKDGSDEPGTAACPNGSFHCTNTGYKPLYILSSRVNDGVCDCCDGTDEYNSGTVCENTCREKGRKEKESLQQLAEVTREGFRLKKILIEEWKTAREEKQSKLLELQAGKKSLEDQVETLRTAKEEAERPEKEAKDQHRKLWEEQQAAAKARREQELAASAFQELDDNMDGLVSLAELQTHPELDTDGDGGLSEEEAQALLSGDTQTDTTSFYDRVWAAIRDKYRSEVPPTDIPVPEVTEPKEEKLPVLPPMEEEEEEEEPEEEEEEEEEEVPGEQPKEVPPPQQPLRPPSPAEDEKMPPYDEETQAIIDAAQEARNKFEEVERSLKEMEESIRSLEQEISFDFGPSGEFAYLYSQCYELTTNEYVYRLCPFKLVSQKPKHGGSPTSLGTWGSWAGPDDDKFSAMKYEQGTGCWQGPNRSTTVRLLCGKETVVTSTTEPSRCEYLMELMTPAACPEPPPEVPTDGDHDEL

**Q.** Which IC50 (α-glucosidase II; heptamannose substrate Glc1Man7GlcNAc1, read-out: α-Glucosidase II (b) Glc1Man7GlcNAc1 IC50) does the source give for `[N-]=[N+]=Nc1ccc(NCCCCCCN2C[C@H](O)[C@@H](O)[C@H](O)[C@H]2CO)c([N+](=O)[O-])c1` [NAP-DNJ, N—(N′-{4′azido-2′-nitrophenyl)-6-aminohexyl)-deoxynojirimycin] here?
**A.** 19.2 ± 0.06 µM

**Q.** What about the IC50 (α-glucosidase II; heptamannose substrate Glc2Man7GlcNAc1, read-out: α-Glucosidase II (a) Glc2Man7GlcNAc1 IC50) of the same compound?
**A.** 11.7 ± 0.7 µM

**Q.** What about the IC50 (α-glucosidase II; pentamannose substrate Glc1Man5GlcNAc1, read-out: α-Glucosidase II (b) Glc1Man5GlcNAc1 IC50) of the same compound?
**A.** 0.833 ± 0.18 µM

**Q.** What about the IC50 (α-glucosidase II; pentamannose substrate Glc2Man5GlcNAc1, read-out: α-Glucosidase II (a) Glc2Man5GlcNAc1 IC50) of the same compound?
**A.** 0.3 ± 0.1 µM

**Q.** And the “concentration of maximal glucosidase I inhibition in cells” value (glucosidase I; G3M5N)?
**A.** 50-100 ρM

**Q.** What about the “more potent at inhibiting glucosidase I than NB-DNJ in cells” value (glucosidase I; estimation of G3M5N) of the same compound?
**A.** 20-50 times
